According to patent US10870633B2, “Types of C-3 substituted kynurenic acid derivatives with improved neuroprotective activity” (SZEGEDI TUDOMÁNYEGYETEM, priority 2016, dated 2020):
Several values for one entry are separate records, joined by “and”; a condition that tells them apart may be missing. Equal values may be shown once. Read-outs that look alike come from different tables or passages of the source.

Tests used:
[1] = Passage on the culture model of the blood-brain barrier (bidirectional permeability); type: in vitro ADME, rat; settings: rat, 10 μM; for Papp A→B at 60 min, 10 μM / Papp A→B at 30 min, 10 μM: AB (from blood to brain) direction; for Papp B→A at 60 min, 10 μM / Papp B→A at 30 min, 10 μM: BA (from brain to blood) direction; for efflux ratio at 60 min, 10 μM: read-out: Efflux ratio: Papp BA/PappAB
Description: (§1) The blood-brain barrier model prepared by the co-cultivation of three cell types (primary rat brain endothelial cells, primary glia and brain microvascular pericyte cells) was used for the permeability experiments (Nakagawa S, Deli M A, Kawaguchi H, Shimizudani T, Shimono T, Kittel A, Tanaka K, Niwa M. Anew blood-brain barrier model using primary rat brain endothelial cells, pericytes and astrocytes. Neurochem Int. 2009 March-April; 54(3-4):253-63. doi: 10.1016/j.neuint.2008.12.002.; Veszelka S, Tóth A E, Walter F R, Datki Z, Mózes E, Fülöp L, Bozsó Z, Hellinger E, Vastag M, Orsolits B, Környei Z, Penke B, Deli M A. Docosahexaenoic acid reduces amyloid-β induced toxicity in cells of the neurovascular unit. J Alzheimers Dis. 2013; 36(3):487-501.).
(§2) Passage of the compounds of the invention was tested in two directions AB (“from blood to brain”) and BA (“from brain to blood”), in 10 μM concentration.
(§3) The permeability experiment took 60 minutes, with sampling at 30 and 60 minutes from the acceptor compartment.
(§4) The concentrations of the active substances passed through the endothelial cell layer were determined with mass spectrometry. By using the measured concentrations and the known data (volume, starting concentration) the clearance (μl) values, or from the clearance and volume data, by taking the surface and the time into consideration, the so-called permeability coefficients (papp, apparent permeability coefficient; measurement unit 10^−6 cm/s) were calculated, which provide the permeation rates of the compounds.

[2] = tested on: blood-brain barrier model (co-cultivation of primary rat brain endothelial cells, primary glia and brain microvascular pericyte cells); assay: as above; type: in vitro ADME; settings: for Efflux ratio: Papp BA/PappAB / Papp A-B 30′ / Papp A-B 60′ / Papp B-A 30′ / Papp B-A 60′ / Passage through the blood-brain barrier compared to the 24/1 and 24/2 comparative compounds: 10 μM; for Papp A-B 30′ / Papp A-B 60′: AB (from blood to brain) direction; for Papp A-B 30′ / Papp B-A 30′: sampling at 30 minutes; for Papp A-B 30′ / Papp A-B 60′ / Papp B-A 30′ / Papp B-A 60′: single replicates; for Papp A-B 60′ / Papp B-A 60′: sampling at 60 minutes; for Papp B-A 30′ / Papp B-A 60′: BA (from brain to blood) direction; for Passage through the blood-brain barrier compared to the 24/1 and 24/2 comparative compounds: FIG. 2; for Permeability grade in words: blood-brain barrier model
Description: as §1, §2, §3, §4

[3] = tested on: fEPSP from the stratum radiatum layer of the CA1 region of the hippocampus; assay: In vitro electrophysiology on hippocampal brain slices (fEPSP amplitude, CA1); type: cell-based, Wistar rats; settings: for fEPSP amplitude, minutes 31-40 of recording (washing in phase): normalized to the averages of the amplitudes of the control phase, last 10 minutes of washing in; for fEPSP amplitude, minutes 61-70 of recording (washing off phase): after 200 μM, normalized to the control phase, last 10 minutes of recording
Method: In the course of our experiments young adult (200-250 g) male Wistar rats were used. Until the start of the experiments the animals were housed in the animal house of the Department of Physiology, Anatomy and Neuroscience, University of Szeged, in standard plastic cages, where 12-12 hours light-dark cycles, standard 23° C. temperature and free access to water and food were provided. In the course of the experiments we aimed at using a minimum number of animals and to cause them the smallest degree of suffering. In each case the principles relating to the care of laboratory animals, the animal care related protocol approved by the Hungarian Health Committee (1998), and the Decree of the Council of the European Communities of 22 Sep. 2010 (2010/63/EU) were followed.
The animals received Isoflurane (3% and then 1%) inhalation anaesthesia for the electrophysiological measurements. After ensuring that the animals were in a deep sleep phase (the paw withdrawal reflex occurring for squeezing stopped), they were decapitated. By incising the head skin and the underlying connective tissue the skull was exposed. Then incisions were made in longitudinal direction along the sagittal suture as well as in transversal direction along the suture coronalis, furthermore caudally therefrom in the right and left direction. After the opening the bregma coronalis incisions were made behind the bulbi and in front of the cerebellum, allowing the removal of the approx. 3 mm thick brain region, containing the hippocampus. From the middle part of the hippocampus 350 μm thick slices were prepared with vibratome (Leica VT1200S, Germany). The cutting was performed in artificial cerebrospinal fluid (aCSF), whose temperature was 4° C. maximum. The aCSF was composed of: 130 mM NaCl, 3.5 mM KCl, 1 mM NaH2PO4, 24 mM NaHCO3, 1 mM […], 3 mM MgSO4 and 10 mM D-glucose (Sigma, Germany). The cut slices were placed in recording aCSF of room temperature, whose composition differed only in the 3 mM CaCl2) and 1.5 MgSO4 concentrations from the one used for cutting. Both the cutting and the recording aCSF were oxygenated with carbogen (95% O2, 5% CO2), for providing the suitable and uninterrupted O2 supply. After the preparation of all the hippocampal slices the recording aCSF in the slice holder container was warmed to 34-35° C., and the brain slices were left to recover for one hour under these conditions in order to assure the proceeding of the regeneration processes started against the damages caused in the course of the slice-preparation. […]
For the electrophysiological recordings a concentric stainless steel electrode (Neuron elektród kft; Budapest, Hungary) was placed in the stratum radiatum layer between the CA3-CA1 regions of the hippocampus, wherein the stimulation was performed with constant current intensity, with 0.2 ms pulses of 0.033 Hz frequency. By positioning the recording electrodes of 2-3 MΩ filled with aCSF in orthodrom position from the previously mentioned region, stimulating postsynaptic field potentials (fEPSP) were conducted from the stratum radiatum layer of the CA1 region, and their amplitudes were monitored.
Submaximal stimulation was used, i.e. about 70-80% of the intensity of the smallest pulse causing the fEPSP of maximum amplitude was used. […] The results were evaluated with the OriginPro 8 (OriginLab Corporation, Northampton, Mass., USA) software. […]

[4] = Solubility compared to previously synthesized analogues (statement); type: physicochemical
[5] = average, n=6, read-out: Papp A-B Average
[6] = sampling at 60 minutes, single replicates, read-out: Papp A-B 60′
[7] = average, n=6, read-out: Papp B-A Average
[8] = sampling at 60 minutes, single replicates, read-out: Papp B-A 60′

| Structure (SMILES) | Papp A→B at 60 min, 10 μM [1, 5] | Papp A→B at 30 min, 10 μM ([1]; single replicates) | Papp A→B at 60 min, 10 μM [1, 6] | Papp B→A at 60 min, 10 μM [1, 7] | Papp B→A at 30 min, 10 μM ([1]; single replicates) | Papp B→A at 60 min, 10 μM [1, 8] | efflux ratio at 60 min, 10 μM [1] | Papp A-B 30′ [2] | Papp A-B 60′ [2] | Papp B-A 30′ [2] | Papp B-A 60′ [2] | Passage through the blood-brain barrier compared to the 24/1 and 24/2 comparative compounds [2] | other results |
| --- | --- | --- | --- | --- | --- | --- | --- | --- | --- | --- | --- | --- | --- |
| Cl.O=C(O)c1nc2ccccc2c(O)c1CN1CCOCC1 [Example 5, 4-hydroxy-3-(morpholinomethyl)quinoline-2-carboxylic acid hydrochloride] | 11 ×10⁻⁶ cm/s | 7.4 ×10⁻⁶ cm/s | 12.4 ×10⁻⁶ cm/s | 5.4 ×10⁻⁶ cm/s | 2.5 ×10⁻⁶ cm/s | 7.6 ×10⁻⁶ cm/s | ~0.5 |  |  |  |  | doubled | Papp A-B 30′ ([2]; hydrochloride): 8.9 10^−6 cm/s and 8.2 10^−6 cm/s; Papp A-B 60′ ([2]; hydrochloride): 15.4 10^−6 cm/s and 13.9 10^−6 cm/s; Papp B-A 30′ ([2]; hydrochloride): 4.0 10^−6 cm/s and 3.2 10^−6 cm/s; Papp B-A 60′ ([2]; hydrochloride): 7.8 10^−6 cm/s and 7.5 10^−6 cm/s; Permeability grade in words [2]: medium permeability |
| CCN(CC)Cc1c(C(=O)NCCN2CCCC2)nc2ccccc2c1O [Example 17, 3-((diethylamino)methyl)-4-hydroxy-N-(2-(pyrrolidin-1-yl)ethyl)quinoline-2-carboxamide] |  |  |  |  |  |  |  |  |  |  |  |  | fEPSP amplitude, minutes 31-40 of recording (washing in phase) ([3]; 200 μM): 124.66±10.43%; fEPSP amplitude, minutes 61-70 of recording (washing off phase) [3]: 110.73±7.63% |
| O=C(O)c1cc(O)c2ccccc2n1 [kynurenic acid, 4-hydroxy-quinoline-2-carboxylic acid] |  |  |  |  |  |  |  |  |  |  |  |  | fEPSP amplitude decrease in the last 10 minutes of the washing in phase ([3]; 200 μM, preliminary experimental results): 53.86±6.09% |
| CN(C)CCNC(=O)c1nc2ccccc2c(O)c1CN1CCOCC1 [Example 16, N-(2-(dimethylamino)ethyl)-4-hydroxy-3-(morpholinomethyl)quinoline-2-carboxamide] | 36.9 ×10⁻⁶ cm/s | 32.7 ×10⁻⁶ cm/s | 37.8 ×10⁻⁶ cm/s | 22 ×10⁻⁶ cm/s | 20.1 ×10⁻⁶ cm/s | 21.7 ×10⁻⁶ cm/s | ~0.5 | 37.2 10^−6 cm/s and 38.0 10^−6 cm/s | 37.4 10^−6 cm/s and 38.6 10^−6 cm/s | 21.8 10^−6 cm/s and 21.3 10^−6 cm/s | 23.2 10^−6 cm/s and 23.8 10^−6 cm/s | six times higher | Permeability grade in words [2]: high permeability |

Continued, in another order:

| Papp A→B at 60 min, 10 μM [1, 5] | Papp A→B at 30 min, 10 μM ([1]; single replicates) | Papp A→B at 60 min, 10 μM [1, 6] | Papp B→A at 60 min, 10 μM [1, 7] | Papp B→A at 30 min, 10 μM ([1]; single replicates) | Papp B→A at 60 min, 10 μM [1, 8] | efflux ratio at 60 min, 10 μM [1] | Papp A-B 30′ [2] | Papp A-B 60′ [2] | Papp B-A 30′ [2] | Papp B-A 60′ [2] | Passage through the blood-brain barrier compared to the 24/1 and 24/2 comparative compounds [2] | Structure (SMILES) | other results |
| --- | --- | --- | --- | --- | --- | --- | --- | --- | --- | --- | --- | --- | --- |
| 6.7 ×10⁻⁶ cm/s | 4.2 ×10⁻⁶ cm/s | 6 ×10⁻⁶ cm/s | 8.1 ×10⁻⁶ cm/s | 7.6 ×10⁻⁶ cm/s | 9.7 ×10⁻⁶ cm/s | ~1 | 8.3 10^−6 cm/s and 6.4 10^−6 cm/s | 8.4 10^−6 cm/s and 6.7 10^−6 cm/s | 7.9 10^−6 cm/s and 7.2 10^−6 cm/s | 7.9 10^−6 cm/s and 8.5 10^−6 cm/s |  | CN(C)CCNC(=O)c1cc(O)c2ccccc2n1.Cl [comparative 24/2, N-(2-(dimethylamino)ethyl)-4-hydroxyquinoline-2-carboxamide, reference compound] | Efflux ratio: Papp BA/PappAB [2]: 1.2 |
| 5.7 ×10⁻⁶ cm/s | 5.4 ×10⁻⁶ cm/s | 7.2 ×10⁻⁶ cm/s | 8.8 ×10⁻⁶ cm/s | 8.3 ×10⁻⁶ cm/s | 12.2 ×10⁻⁶ cm/s | ~1 | 4.5 10^−6 cm/s and 7.4 10^−6 cm/s | 3.9 10^−6 cm/s and 5.8 10^−6 cm/s | 8.1 10^−6 cm/s and 4.2 10^−6 cm/s | 10.5 10^−6 cm/s and 9.2 10^−6 cm/s |  | Cl.O=C(NCCN1CCCC1)c1cc(O)c2ccccc2n1 [comparative 24/1, 4-hydroxy-N-(2-(pyrrolidin-1-yl)ethyl)quinoline-2-carboxamide, reference compound] | Efflux ratio: Papp BA/PappAB [2]: 1.5 |
| 18.6 ×10⁻⁶ cm/s | 16.4 ×10⁻⁶ cm/s | 16.9 ×10⁻⁶ cm/s | 25 ×10⁻⁶ cm/s | 22.3 ×10⁻⁶ cm/s | 24.9 ×10⁻⁶ cm/s | ~1 | 20.1 10^−6 cm/s and 17.9 10^−6 cm/s | 21.5 10^−6 cm/s and 18.8 10^−6 cm/s | 24.3 10^−6 cm/s and 25.1 10^−6 cm/s | 26.7 10^−6 cm/s and 26.6 10^−6 cm/s | triple | O=C(NCCN1CCCC1)c1nc2ccccc2c(O)c1CN1CCOCC1 [Example 20, 4-hydroxy-3-(morpholinomethyl)-N-(2-(pyrrolidin-1-yl)ethyl)quinoline-2-carboxamide] | fEPSP amplitude, minutes 31-40 of recording (washing in phase) ([3]; 200 μM): 58.14±10.16%; fEPSP amplitude, minutes 61-70 of recording (washing off phase) [3]: 107.14±17.99%; Solubility compared to previously synthesized analogues or other analogues with similar effect [4]: better solubility |
